Article PMC8064491, “Design and Synthesis of Novel Symmetric Fluorene-2,7-Diamine Derivatives as Potent Hepatitis C Virus Inhibitors” (Pharmaceuticals, 2021)
Like-named read-outs stand apart in the source and are kept apart here.

Key:
Huh5-2 cells = experiment: Cytotoxicity by intracellular ATP levels; format: cell-based; details: 72 h, read-out: HCV Replicon 1b CC50
Method: (§1) The HCV RNA replication inhibitory effect of the novel compounds and their impact on cell viability was tested in the stable cell line Huh5-2 carrying an HCV subgenomic reporter replicon of genotype 1b (strain Con1). The viral replication level was measured in terms of the activity of the co-expressed firefly luciferase (F-Luc). Several concentrations of the tested compounds were prepared in a cell culture medium and were used to treat the cells for 72 h. The solvent DMSO was added as a control with a final concentration of 0.2% so as not to impact viral replication (data not shown). First, different compound concentrations of up to 100 μM were evaluated for their effect on cell viability; results are reported as the median cytotoxic concentration (CC50). Next, all compounds were screened for their anti-HCV activity at a concentration of 1 µM, and compounds showing ≥50% activity were further tested in several concentrations to calculate the median effective concentration (EC50) values (Table 1 and Table 2). The anti-HCV activity of the analogs 1–32 was estimated by quantifying luciferase activity resulting from viral replication. Cytotoxicity was determined by measuring the intracellular levels of ATP. The selectivity index (SI50) was calculated as the ratio of CC50 to EC50 and was calculated as an indication of the compounds’ safety. We used daclatasvir as a positive control.
(§2) Cells were treated with serial dilutions of the test compounds or the solvent DMSO for 72 h. Antiviral activity and cytotoxicity were determined by measuring virus-derived luciferase activity or intracellular ATP levels, respectively. The median effective concentration (EC50) of the compounds, reducing luciferase signal by 50%, and their median cytotoxic concentration (CC50), causing 50% cell death, were determined by nonlinear regression analysis using the Prism 6.0 software (GraphPad Software Inc.). Daclatasvir was kindly provided by Dr. Marc Windisch (Institut Pasteur Korea).
(§3) ATP was measured using the ViaLight HS BioAssay kit (Lonza) according to the manufacturer’s protocol in a GloMax 20/20 single-tube luminometer (Promega) for 1 s. Values were normalized to total protein amounts.

[1] = tested on: HCV subgenomic reporter replicon of genotype 1b (strain Con1); experiment: Anti-HCV 1b activity, luciferase reporter replicon assay in Huh5-2 cells; format: cell-based, Hepatitis C virus; details: for EC50: read-out: HCV Replicon 1b EC50; for HCV Replicon 1b SI50: SI50 = CC50/EC50; for fold more potent than six-membered congeners: 1, 9, 17, 21 vs 29, 30, 31, 32 respectively
Method: as §1
(§4) The stable replicon cell line Huh5-2 (genotype 1b; Con1) (kindly provided by R. Bartenschlager, Heidelberg University, Germany) has been described previously. The stable cell lines Huh7.5-3a and Huh7.5-4a have been constructed with the subgenomic reporter replicons of HCV 3a (S52) S52-SG(Feo)(AII) and HCV 4a (ED43) ED43-SG(Feo)(VYG) (kindly provided by C.M. Rice, The Rockefeller University, NY). Cells were cultured in high glucose (25 mM) Dulbecco’s modified minimal essential medium (Invitrogen), supplemented with 2 mM L-glutamine, 0.1 mM non-essential amino acids, 100 U/mL penicillin, 100 µg/mL streptomycin, and 10% (v/v) fetal calf serum (referred to as complete DMEM). Complete DMEM was supplemented with G418 at 500 μg/mL for Huh5-2, 750 μg/mL for Huh7.5-3a, and 350 μg/mL for Huh7.5-4a.
as §2
Firefly luciferase activity was measured using Luciferase Assay System (Promega), according to the manufacturer’s instructions. Measurements were performed with a GloMax 20/20 single tube luminometer (Promega) for 10 s. Values were normalized to total protein amounts as quantified by Bradford assay (Pierce).

[2] = Cytotoxicity by intracellular ATP levels; format: cell-based; details: human, Huh5-2 cells, read-out: HCV Replicon 1b CC50
Method: as §1, §2, §3

[3] = tested on: HCV subgenomic replicon of genotype 3a (strain S52); experiment: Anti-HCV 3a activity, replicon assay in Huh7.5-3a cells; format: cell-based, Hepatitis C virus; details: Hepatitis C virus; Huh7.5-3a cells; read-out: EC50 GT 3a
From the text: Compound 26, showing the highest activity on genotype 1b was further tested against HCV 3a and 4a replicons. The fact that genotype 4 is highly heterogeneous, of less response to DAAs, and the most prevalent genotype in Egypt, made this genotype of specific interest. Moreover, genotype 3 is the most difficult to treat genotype using DAAs, especially in patients with liver cirrhosis. Specifically, Huh7.5-3a and Huh7.5-4a stable cell lines having HCV subgenomic replicons of genotypes 3a (strain S52) and 4a (strain ED43), respectively, were treated with different concentrations of compound 26. […] Further structural optimization is required, and testing compound 26 in combination with other DAAs could improve the clinical outcome.
as §4
Cells were treated with serial dilutions of the test compounds or the solvent DMSO for 72 h. Antiviral activity and cytotoxicity were determined by measuring virus-derived luciferase activity or intracellular ATP levels, respectively. […]
Firefly luciferase activity was measured using Luciferase Assay System (Promega), according to the manufacturer’s instructions. […] Values were normalized to total protein amounts as quantified by Bradford assay (Pierce).

[4] = Huh5-2 cells, 72 h, luciferase activity
[5] = Hepatitis C virus, Huh-5-2, Huh5-2 cells, 72 h, luciferase activity
[6] = Hepatitis C virus, Huh-5-2, 72 h

Row | Molecule | CC50 (Huh5-2 cells) [µM] | EC50 [1, 4] [nM] | HCV Replicon 1b SI50 [1] | CC50 at 72 h [2] [µM] | EC50 [1, 6] [nM] | other results
1 | Diethyl((2S,2’S)-((2S,2’S)-(((9H-fluorene-2,7 diyl)bis(azanediyl))bis(carbonyl)) bis(pyrrolidine-2,1-diyl))bis(4-methyl-1-oxopentane-1,2-diyl))dicarbamate [Compound 18] | > 100 | 151 | >664 |  |  | 
2 | Dimethyl((2S,2’S)-((2S,2’S)-(((9H-fluorene-2,7-diyl)bis(azanediyl))bis (carbonyl)) bis(pyrrolidine-2,1-diyl))bis(4-methyl-1-oxopentane-1,2-diyl))dicarbamate [Compound 17] | > 100 | 10.7 | >9381 |  |  | fold more potent than six-membered congeners ([1]; HCV 1b EC50 ratio): 28 fold
3 | COC(=O)N[C@H](C(=O)N1CCC[C@H]1c1nc(-c2ccc(-c3ccc(-c4c[nH]c([C@@H]5CCCN5C(=O)[C@@H](NC(=O)OC)C(C)C)n4)cc3)cc2)c[nH]1)C(C)C [Daclatasvir, reference compound] |  |  | 655,556 | 17.7 |  | EC50 [3]: 0.0083 µM; EC50 [1, 5]: 0.027 nM
4 | Dimethyl((2S,2’S)-((2S,2’S)-(((9H-fluorene-2,7-diyl)bis(azanediyl))bis(carbonyl))bis(pyrrolidine-2,1-diyl))bis(3-methyl-1-oxopentane-1,2-diyl))dicarbamate [Compound 9] | > 100 | 27.5 | >3636 |  |  | fold more potent than six-membered congeners ([1]; HCV 1b EC50 ratio): 11 fold; times less active than R congener compound 13 ([1]; HCV 1b EC50 ratio): around 340 times
5 | COC(=O)N[C@H](CC(C)C)C(=O)N1CCC[C@H]1C(=O)Nc1ccc2c(c1)Cc1cc(NC(=O)[C@@H]3CCCN3C(=O)[C@@H](CC(C)C)NC(=O)OC)ccc1-2 [Compound 13, Dimethyl((2R,2’R)-((2S,2’S)-(((9H-fluorene-2,7-diyl)bis(azanediyl))bis(carbonyl))bis(pyrrolidine-2,1-diyl))bis(4-methyl-1-oxopentane-1,2-diyl))dicarbamate] |  |  | >1,238,850 | > 100 | 0.081 | 
6 | CCCCOC(=O)N[C@H](CC(C)C)C(=O)N1CCC[C@H]1C(=O)Nc1ccc2c(c1)Cc1cc(NC(=O)[C@@H]3CCCN3C(=O)[C@@H](CC(C)C)NC(=O)OCCCC)ccc1-2 [Compound 15, Dibutyl((2R,2’R)-((2S,2’S)-(((9H-fluorene-2,7-diyl)bis(azanediyl))bis(carbonyl))bis(pyrrolidine-2,1-diyl))bis(4-methyl-1-oxopentane-1,2-diyl))dicarbamate] |  |  |  | 34.2 | > 1000 | 
7 | O=C(N[C@H](C(=O)N1CCC[C@H]1C(=O)Nc1ccc2c(c1)Cc1cc(NC(=O)[C@@H]3CCCN3C(=O)[C@@H](NC(=O)OCc3ccccc3)c3ccccc3)ccc1-2)c1ccccc1)OCc1ccccc1 [Compound 24, Dibenzyl((1S,1’S)-((2S,2’S)-(((9H-fluorene-2,7-diyl)bis(azanediyl))bis(carbonyl))bis(pyrrolidine-2,1-diyl))bis(2-oxo-1-phenylethane-2,1-diyl))dicarbamate] |  |  | >89,606 | > 100 |  | EC50 [1, 5]: 1.12 nM
8 | CCOC(=O)N[C@@H](C(=O)N1CCC[C@H]1C(=O)Nc1ccc2c(c1)Cc1cc(NC(=O)[C@@H]3CCCN3C(=O)[C@H](NC(=O)OCC)C(C)C)ccc1-2)C(C)C [Compound 6, Diethyl((2R,2’R)-((2S,2’S)-(((9H-fluorene-2,7-diyl)bis(azanediyl))bis(carbonyl))bis(pyrrolidine-2,1-diyl))bis(3-methyl-1-oxobutane-1,2-diyl))dicarbamate] |  |  | 780 | 79.5 | 102 | 
9 | Dibenzyl((2S,2’S)-((2S,2’S)-(((9H-fluorene-2,7-diyl)bis(azanediyl))bis(carbonyl))bis(pyrrolidine-2,1-diyl))bis(3-methyl-1-oxopentane-1,2-diyl))dicarbamate [Compound 12] | 46.5 | > 1000 |  |  |  | 
10 | CCCCOC(=O)N[C@@H](C(=O)N1CCC[C@H]1C(=O)Nc1ccc2c(c1)Cc1cc(NC(=O)[C@@H]3CCCN3C(=O)[C@H](NC(=O)OCCCC)C(C)C)ccc1-2)C(C)C [Compound 7, Dibutyl((2R,2’R)-((2S,2’S)-(((9H-fluorene-2,7-diyl)bis(azanediyl))bis(carbonyl))bis(pyrrolidine-2,1-diyl))bis(3-methyl-1-oxobutane-1,2-diyl))dicarbamate] |  |  | >102 | > 100 | 981 | 
11 | CCCCOC(=O)N[C@H](C(=O)N1CCC[C@H]1C(=O)Nc1ccc2c(c1)Cc1cc(NC(=O)[C@@H]3CCCN3C(=O)[C@@H](NC(=O)OCCCC)C(C)C)ccc1-2)C(C)C [Compound 3, Dibutyl((2S,2’S)-((2S,2’S)-(((9H-fluorene-2,7-diyl)bis(azanediyl))bis(carbonyl))bis(pyrrolidine-2,1-diyl))bis(3-methyl-1-oxobutane-1,2-diyl))dicarbamate] |  |  |  | > 100 | > 1000 | 
12 | Dibenzyl((2S,2’S)-((2S,2’S)-(((9H-fluorene-2,7-diyl)bis(azanediyl))bis(carbonyl))bis(pyrrolidine-2,1-diyl))bis(4-methyl-1-oxopentane-1,2-diyl))dicarbamate [Compound 20] | 98.7 | > 1000 |  |  |  | 
13 | Diethyl((2S,2’S)-((2S,2’S)-(((9H-fluorene-2,7-diyl)bis(azanediyl))bis(carbonyl))bis(pyrrolidine-2,1-diyl))bis(3-methyl-1-oxopentane-1,2-diyl))dicarbamate [Compound 10] | 85.5 | 0.137 | 622,344 |  |  | fold more potent than congener with D-leucine moiety ([1]; HCV 1b EC50 ratio): 18 fold
14 | COC(=O)N[C@@H](C(=O)N1CCC[C@H]1C(=O)Nc1ccc2c(c1)Cc1cc(NC(=O)[C@@H]3CCCN3C(=O)[C@H](NC(=O)OC)C(C)C)ccc1-2)C(C)C [Compound 5, Dimethyl ((2R,2’R)-((2S,2’S)-(((9H-fluorene-2,7-diyl)bis(azanediyl))bis(carbonyl))bis(pyrrolidine-2,1-diyl))bis(3-methyl-1-oxobutane-1,2-diyl))dicarbamate] |  |  | >125 | > 100 | 801 | 
15 | CCCCOC(=O)N[C@@H](C(=O)N1CCC[C@H]1C(=O)Nc1ccc2c(c1)Cc1cc(NC(=O)[C@@H]3CCCN3C(=O)[C@H](NC(=O)OCCCC)c3ccccc3)ccc1-2)c1ccccc1 [Compound 27, Dibutyl((1R,1’R)-((2S,2’S)-(((9H-fluorene-2,7-diyl)bis(azanediyl))bis(carbonyl))bis(pyrrolidine-2,1-diyl))bis(2-oxo-1-phenylethane-2,1-diyl))dicarbamate] |  |  | >24,795 | > 100 | 4.03 | times less potent than compound 26 ([1]; HCV 1b EC50 ratio): 100 times
